Tests used:
[1] = system: CLB-BAR (ALK-Δ4-11, ALK addicted) neuroblastoma cells; experiment: Proliferation assay (resazurin cell viability), CLB-BAR; assay type: cell-based; conditions: Homo sapiens, 72 hours, read-out: IC50 (cell growth)
Description: (§1) Cells were seeded at 15,000 per well with serial dilutions of the indicated inhibitors. After 72 hours cell viability was assessed by resazurin (Sigma, Sweden). IC50 values were calculated with GraphPad Prism 6.0 by fitting data to a log (inhibitor concentration) vs. normalized response (variable slope) equation. Each experiment was performed in duplicate and repeated at least three times.

[2] = inferred from CNS responses in NSCLC patients; cited from earlier work
[3] = system: CLB-GE (ALK-F1174V, ALK addicted) neuroblastoma cells; experiment: Proliferation assay (resazurin cell viability), CLB-GE; assay type: cell-based; conditions: Homo sapiens, 72 hours, read-out: IC50 (cell growth)
Description: as §1

CLB-BAR cells = experiment: Xenograft neuroblastoma model in vivo; set-up: species or system BalbC/NUDE mice
Description: In the first investigation mice (n=3) were employed and in the second investigation mice (n=5) were employed. […] In the second investigation where 5 mice were employed a subset of mice (n=2) were released from treatment after 14 days, for a further 8 days (blue curve). […] C. […] Data are means +/− SE from 8 tumours, p values indicated; Student's t test.
Female Balbc/nude mice (Charles River, Germany) at 5-6 weeks age were maintained in a pathogen-free environment. For xenografts, 2.5 million CLB-BAR cells (MYCN amplified, ALK (Δ4-11) amplified) were injected subcutaneously. Once tumor volume achieved about 50mm^3, drug was given at 50 mg/kg body weight, by oral gavage, once daily, continuously for 14 days. Mice were grouped by tumor volume randomly. Tumor volume was calculated with the following equation: V=0.5236×L×W^2 (V=volume, L=longest, W=width).
Mice were sacrificed and tumors were collected. Tumors were fixed in 4% PFA, followed by 15% and 30% sucrose in PBS. Tumors were embedded in OCT compound (VWR chemicals) and frozen at −80°C. […] Secondary antibodies (Cell Signaling Tech., Danver, MA) were applied for 2 hours at room temperature. Impact DAB (Vector Laboratories, SK 4105) was employed for staining followed by hematoxylin cross-staining (Sigma-Aldrich). After mounting sections, images were taken using an Axio zoom V16 stereo microscope (Zeiss).

ALK-positive NSCLC = conditions: cited from earlier work
[4] = system: CLB-PE (ALK-WT, non-ALK addicted) neuroblastoma cells; experiment: Proliferation assay (resazurin cell viability), CLB-PE; assay type: cell-based, human; conditions: 72 hours
Description: as §1

[5] = system: IMR32 (ALK-WT, non-ALK addicted) neuroblastoma cells; experiment: Proliferation assay (resazurin cell viability), IMR32; assay type: cell-based, human; conditions: IMR32, 72 hours
Description: as §1

ALK mutants = experiment: Neurite outgrowth assay in PC12 cells, ALK mutants; assay type: cell-based, human
Description: PC12 cells (2 x10^6) co-transfected, in 100 μl of Ingenio electroporation solution (Minus Bio LCC), with pEGFPN1 (Clonetech) (0.5 ng) and ALK-mutant (0.75 ng) or ALK-wt (0.75 ng) as indicated were seeded sparingly into 24-well plates. ALK-wild type was stimulated with 1 μg/ml mAb31. After 48 hours post transfection, the fraction of GFP-positive and neurite carrying cells versus GFP-positive cells were analyzed under a Zeiss Axiovert 40 CFL microscope. A cell was considered as neurite-carrying if it had neurite(s) that reached at least twice the length of the diameter of a normal cell body. The experiments were performed at least three times in triplicates.

[6] = system: neuroblastoma tumor growth; conditions: orthotopic xenograft tumor growth and TH-ALKF1174L/TH-MYCN mouse model; cited from earlier work
[7] = immunoblotting, vs control group

Structure (SMILES): COc1cc(N2CCC(N3CCN(C)CC3)CC2)ccc1Nc1ncc(Cl)c(Nc2ccccc2P(C)(C)=O)n1 [brigatinib]
- IC50 [1]: 75.3 ± 8.89 nM
- blood-brain barrier penetration [2]: able to penetrate the blood-brain barrier
- IC50 [3]: 100 ± 17.5 nM
- tumor weight (CLB-BAR cells; 50 mg/kg once daily oral gavage, 14 days, vs controls, p=0.01): significantly reduced
- tumor volume / tumor growth (CLB-BAR cells; 50 mg/kg once daily oral gavage, 14 days, vs vehicle, p=0.0004): considerably inhibits proliferation of tumor growth
- side effect in vivo (CLB-BAR cells; 50 mg/kg once daily, 14 days): no obvious side effect
- body weight of mice (CLB-BAR cells; 50 mg/kg once daily, 14 days, p=0.9): did not show any variation
- MYCN protein levels in tumor material (CLB-BAR cells; [7]): decreased protein levels
- phospho-ALK levels in tumor material (CLB-BAR cells; [7]): decreased phospho-ALK levels
- phosphorylated ERK5 and AKT in tumor material (CLB-BAR cells; [7]): reduced phosphorylation
- total ALK protein levels in tumor material (CLB-BAR cells; [7]): No obvious change
- tumor volume/growth after discontinuation of treatment (CLB-BAR cells; treatment discontinued after 14 days, for 8 days, n=2): increase in tumor volume/growth
- Ki-67 proliferation marker in excised tumor (CLB-BAR cells; vs controls, p=0.0005): significantly reduced proliferation
- patients with non-measureable CNS lesions with disappearance of all lesions (ALK-positive NSCLC; 8/26 patients): 31%
- patients responding to treatment (ALK-positive NSCLC; crizotinib refractory ALK-positive NSCLC patients): about 72%
- response in patients with baseline CNS metastases (ALK-positive NSCLC; radiological review, 6/12 patients): 50%
- inhibition of cell growth [4]: Neither brigatinib nor crizotinib was able to inhibit growth
- inhibition of cell growth [5]: Neither brigatinib nor crizotinib was able to inhibit growth
- block of neurite outgrowth compared with crizotinib (ALK mutants; ALK-G1269A, ALK-R1275 and ALK-R1192P, brigatinib 15 and 30 nM vs crizotinib 250 nM): more efficiently than crizotinib
- neurite outgrowth of all tested ALK mutants (ALK mutants; PC12 cells, 48 hours): could abrogate neurite outgrowth

Structure (SMILES): C[C@@H](Oc1cc(-c2cnn(C3CCNCC3)c2)cnc1N)c1c(Cl)ccc(F)c1Cl [crizotinib]
- efficacy as a single agent treatment [6]: limited efficacy

From publication PMC5045374 (Oncotarget, 2016)
